The NIST ThermoML archive (doi:10.1021/je700036v)
± gives the expanded uncertainty stated by the source.

Experiment: refractive index (Na D-line) (dimensionless)
Conditions: 293.1 K; 101.33 kPa; Liquid; Standard Abbe refractometry

refractive index | SMILES
1.423 ± 0.0007 | CC1CCCCC1 [methylcyclohexane]
1.484 ± 0.0007 | O=CN1CCOCC1 [N-formylmorpholine]

SMILES | refractive index
Cc1ccccc1 [toluene] | 1.4873 ± 0.0007
